Test: recombinant barcode read abundance after kanamycin selection (control-corrected) (log10(CPM+1)); higher = more efficient recombination; sequences stand for … in AGTGCAGAGAAAATCGGCCAGTTTTCTCTGCCTGCAGTCCGCATGCCGT…AGATTTATGCAGCGGACTGCCTTTCTCCCAAAGTGATAAACCGGACAGTATCATGGACCGGTTTTCCCGGTAATCCGTATTTGCAAGGTTGGTTTCACT; site = the 11-nt target
Outline: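 Targets and IS621 bridge RNA target-binding loops were paired in oligos, each with a promoter, a barcode and the J23119-driven first 104 bridge RNA bases. A vector carrying the remaining 73 bp and a T7-inducible recombinase received these by Gibson cloning, and the pool was co-electroporated into E. coli with a donor plasmid. Duplicate plates contained chloramphenicol/ampicillin LB agar (control) or chloramphenicol/ampicillin/kanamycin with 0.1 mM IPTG. Recombination efficiency comes from averaged, control-corrected counts per million of recombinant-junction barcodes, reported as log10(CPM+1).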
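Also: IS621 recombinase and bridge RNA in Escherichia coli cells.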

| Sequence | recombinant barcode read abundance (log10) |
| --- | --- |
| TGCGCAACTTGGGTTCTAACCTGTTGCCT (site TGCGCGACTAG) | 0.0979 |
| TGCGCAACTTGGGTTCTAACCTGTTGCCT (site TGCGCTACTAG) | 0.0921 |
| TGCGCGACTTGGGTTCTAACCTGTTGCCT (site TGCGCAACTAG) | 0.0131 |
| TGCGCGACTTGGGTTCTAACCTGTTGCCT (site TGCGCCACTAG) | 0.0885 |
| TGCGCGACTTGGGTTCTAACCTGTTGCCT (site TGCGCGACTAG) | 0.032 |
| TGCGCGACTTGGGTTCTAACCTGTTGCCT (site TGCGCTACTAG) | 0.0869 |
| TGCGGAGCTTGGGTTCTAACCTGTTGCCT (site TGCCGACCTAG) | 0.163 |
| TGCGGAGCTTGGGTTCTAACCTGTTGCCT (site TGCGGAGCTAG) | 0.875 |
| TGCGGAGCTTGGGTTCTAACCTGTTGCGG (site AACGGAGCTCC) | 0.348 |
| TGCGGAGCTTGGGTTCTAACCTGTTGCGG (site TGCGGAGCTCC) | 1.81 |
| TGCGTGTCTTGGGTTCTAACCTGTTGCTG (site TACGTGTCTTA) | 0.0382 |
| TGCGTGTCTTGGGTTCTAACCTGTTGCTG (site TGCGTGTCTCA) | 1.6 |
| TGCTGGGCTTGGGTTCTAACCTGTTGCTG (site CTTCATTCTAG) | 0.225 |
| TGCTGGGCTTGGGTTCTAACCTGTTGCTG (site TGCTGGGCTCA) | 0.32 |
| TGCTGTCCTTGGGTTCTAACCTGTTGCCT (site TGCTGTACTAG) | 0.2 |
| TGCTGTCCTTGGGTTCTAACCTGTTGCCT (site TGCTGTCCTAG) | 0.111 |
| TGCTGTCCTTGGGTTCTAACCTGTTGCCT (site TGCTGTGCTAG) | 0.139 |
| TGCTGTCCTTGGGTTCTAACCTGTTGCCT (site TGCTGTTCTAG) | 0.0325 |

| Sequence | recombinant barcode read abundance (log10) |
| --- | --- |
| TGCTGTCCTTGGGTTCTAACCTGTTGCTT (site CAGACGACTTG) | 0.127 |
| TGCTGTCCTTGGGTTCTAACCTGTTGCTT (site TGCTGTCCTAA) | 0.00473 |
| TGGAACCCTTGGGTTCTAACCTGTTGCGG (site TGGAACCCTCC) | 0.706 |
| TGGAACCCTTGGGTTCTAACCTGTTGCGG (site TGGCACCCTCC) | 0.0841 |
| TGGAGAGCTTGGGTTCTAACCTGTTGCAG (site ACCTTGCCTTA) | 0.0256 |
| TGGAGAGCTTGGGTTCTAACCTGTTGCAG (site TGGAGAGCTCT) | 2.3 |
| TGGAGCCCTTGGGTTCTAACCTGTTGCAC (site TGGAGCCCTAT) | 0.0355 |
| TGGAGCCCTTGGGTTCTAACCTGTTGCAC (site TGGAGCCCTCT) | 0.114 |
| TGGAGCCCTTGGGTTCTAACCTGTTGCAC (site TGGAGCCCTGT) | 0.253 |
| TGGAGCCCTTGGGTTCTAACCTGTTGCAC (site TGGAGCCCTTT) | 0.0674 |
| TGGAGTCCTTGGGTTCTAACCTGTTGCTT (site TGGAGCCCTAA) | 0.276 |
| TGGAGTCCTTGGGTTCTAACCTGTTGCTT (site TGGAGTCCTAA) | 0.605 |
| TGGATCACTTGGGTTCTAACCTGTTGCCT (site TGGAACACTAG) | 0.0491 |
| TGGATCACTTGGGTTCTAACCTGTTGCCT (site TGGACCACTAG) | 0.0457 |
| TGGATCACTTGGGTTCTAACCTGTTGCCT (site TGGAGCACTAG) | 0.0771 |
| TGGATCACTTGGGTTCTAACCTGTTGCCT (site TGGATCACTAG) | 1.09 |
| TGGCCCTCTTGGGTTCTAACCTGTTGCTC (site TGGCCCTCTAA) | 0.0244 |
| TGGCCCTCTTGGGTTCTAACCTGTTGCTC (site TGGCCCTCTCA) | 0.304 |
